The values that follow come from patent US6447797B2, “Antibacterial phosphoinositides” (Abbott Laboratories, priority 1998, dated 2002).

Several values for one entry are separate records, joined by “and”; a condition that tells them apart may be missing. Identical values can stand only once. Entries after “also recorded” stand apart in the source; their conditions may differ. Marks after values point to notes of the source that are not given here.

The test system of assay [1] is Haemophilus influenzae nontypeable bacterium strain adhering to Detroit 562 human pharynx carcinoma cells (DT 562). The experiment in a line: Inhibition of adhesion of 111-In radiolabeled Haemophilus influenzae to DT 562 human pharynx cells. As to conditions: for Activity in adhesion bioassay (in words): adhesion of H. influenzae to human pharynx cells. The assay is classed as cell-based. The text has this:
To determine the ability of various phosphoinositides to prevent the adhesion of Haemophilus influenzae to human nasopharynx cells, the following procedure was used. Detroit 562 human pharynx carcinoma cells (DT 562) were obtained from the American Culture Type Collection. A Haemophilus influenzae nontypeable bacterium strain, which was isolated from the middle ear of an infected child, was obtained from Dr. Lauren Bakaletz of The Ohio State University in Columbus, Ohio.
The DT 562 cells were seeded into Costar 96 well plates at a density of 20,000 to 25,000 cells per well and were cultured in Dulbeco's modified Eagle Medium, available from Grand Island Biological Company. The cells were supplemented with 10% fetal bovine serum (FBS), available from Hyclone. The plates were incubated in a humidified atmosphere of 95% air and 5% carbon dioxide at 37° C. Plates containing cells were washed three times with 20 μL of Hanks Balanced Saline Solution (HBSS), available from Sigma Chemical Company of St. Louis, Mo., to remove serum proteins before the addition of bacteria in adhesion assays.
Haemophilus influenzae was streaked onto Chocolate agar plates, available from Becto Dickinson Diagnostic Instrument System of Sparks, Maryland, from frozen aliquots of a low passage number. The plates were then incubated at 37° C. in a humidified atmosphere of 95% air and 5% carbon dioxide for 18 hours to obtain logarithmically growing cultures. Bacteria harvested in phosphate buffered solution (PBS) supplemented with 0.05% bovine serum albumin (BSA), available from Miles Inc. of Kankakee, Ill., were centrifuged and resuspended in a volume of PBS/BSA yielding an optical density of 2.4 at a wavelength of 660 nm. ^111-Indium-oxine (^111-In), a high-energy, short-lived tracer was utilized to radiolabel the bacteria. Fifty μCi of ^111-In solution was added to 2.5 mL of the bacterial suspension and incubated for 20 minutes at 37° C. The radiolabeled bacteria were then washed two times with 10 mL HBSS to remove unbound ^111-In and resuspended in 5 mL HBSS supplemented with 30 mM 2-hydroxyethylpiperazine-N′-2-ethane sulfonic acid buffer, available from Life Technologies, a producer of Gibco BRL Products, of Grand Island, N.Y. Twenty-five μL of the ^111-In labeled bacterial suspension was preincubated with 25 μL of the test chemical in a polypropylene 96 well plate, available from Costar, for 15 minutes at 37° C. to allow binding of the test agent to the Haemophilus influenzae bacterium.
To determine the adhesion quantitation, the following procedure was used. Twenty-five μL of the preincubation mixture containing radiolabeled bacteria and the test chemical were pipetted into each well of the assay plate containing DT 562 cells. The assay plate was incubated for about 15 to about 20 minutes at 37° C. to allow adhesion of the bacteria to the cell monolayer. Nonadherent bacteria were removed by washing the plate three times in HBSS. The assay was terminated by the addition of 100 μL of 0.05 N sodium hydroxide to disrupt the cell monolayer and the adhering of the Haemophilus influenzae bacterium. The contents of each well were then placed in Cobra polypropylene tubes and counted on a Cobra Gamma Counter, available from Packard Bell. After background radiation was subtracted from each well, the average count of four replicates (per sample) was calculated. Results are presented in Table 1 as the percent of inhibition of bacterial adhesion, as compared to bacterial attachment, in control wells containing no test chemical and in which the percent of inhibition is zero.

The subject of assay [2] is nontypeable Haemophilus influenzae. Description: Neonatal rat model of nasopharyngeal colonisation by nontypeable Haemophilus influenzae. As to conditions: for H.I. Recovered Log10 (CFU/mL): intranasal, nasal wash 24 hours after administration, 10 rat pups per group. Format: in vivo. The method, then:
The attachment of Haemophilus influenzae to a mammal's nasopharynx area is believed to be the first stage of a bacterial infection which can lead to otitis media and other disorders and diseases caused by Haemophilus influenzae. A neonatal rat model was used to test the in vivo activity of phosphoinositides, and more specifically PI-3,4-PP, against nontypeable Haemophilus influenzae .
In the test, overnight cultures of nontypeable Haemophilus influenzae were prepared, washed twice and diluted with HBSS to obtain a bacterial suspension of less than 100,000 colony forming units (CFU) per mL. Sample solutions of the PI-3,4-PP were prepared by dissolving in HBSS at 2 mg/mL. The sample solution was mixed with an equal volume (0.5 mL) of the diluted bacterial suspension and incubated for one hour at 37° C. A bacterial control was prepared by mixing and incubating 0.5 mL HBSS with an equal volume of the diluted bacterial suspension. A solvent blank was prepared by incubating 1 mL of HBSS under the same conditions.
In the test, the experimental and control mixtures were used to inoculate 24-hour-old or younger rat pups at 10 μL each intranasally. Twenty-four hours after administration, samples of nasopharyngeal fluid were obtained by the slow instillation of 25 μL of HBSS into the left naris and the initial 10 μL discharge from the right naris was collected for plate count. This procedure insured that the fluid had passed through the nasopharynx. The nasal wash was then spread, or diluted and then spread, onto chocolate agar plates. The plates were incubated at 37° C. overnight and counted for the number of CFU's, an indicator of the number of viable bacteria.

Setting [3] is: Test Level 0.1 mg/mL, vs control wells without test chemical, average of four replicates.

With “1-D-myo-inositol-1,2,6-triphosphate sodium salt [I-1,2,6-PPP, reference compound]”, the “% Inhibition of bacterial adhesion” value in assay [1] (setting [3]) is on record as 6* %. The “Activity in adhesion bioassay (in words)” value in assay [1] was “inactive”.
On the same counts, the results for “1-D-myo-inositol-1,3,4-triphosphate sodium salt [I-1,3,4-PPP, reference compound]” are −1% and “inactive”.
Turning to `O=P([O-])(OCC(O)CO)OC1C(O)C(O)C(O)C(O)C1O.[Li+]` [GPI, 1-(a-glycerophosphopoyl)-D-myo-insoitol lithium salt, reference compound], in assay [1] (Test Level 0.5 mg/mL), the “% Inhibition of bacterial adhesion” value is recorded as −3%. Further, in assay [1], the “Activity in adhesion bioassay (in words)” value was “inactive”.
Turning to “L-a-phosphatidylinositol ammonium salt [PI, reference compound]”, in assay [1] (setting [3]), the “% Inhibition of bacterial adhesion” value is given as −2%. The “Activity in adhesion bioassay (in words)” value in assay [1] is “inactive”.
The corresponding values for “L-a-phosphatidylinositol-4-monophosphate sodium salt [PI-4-P]” are 24% and “lower level of activity”.
For the compound “dipalmitoylphosphatidylinositol-3,4-diphosphate ammonium salt [PI-3,4-PP]”, the “% Inhibition of bacterial adhesion” value in assay [1] (Test Level 0.006 mg/mL) is 31%; in assay [1] (Test Level 0.013 mg/mL), 33%; in assay [1] (Test Level 0.025 mg/mL), 58%; in assay [1] (Test Level 0.050 mg/mL, ammonium salt), 80%; in assay [1] (Test Level 0.050 mg/mL, listed as PI-3,4-P, ammonium salt) it was “about 80%”; in assay [1] (Test Level 0.1 mg/mL, vs control wells without test chemical, average of four replicates, ammonium salt) it was 74% and 81%. Further, the “Lowest concentration at which activity was exhibited” value in assay [1] (adhesion inhibition, dose response) was determined as 0.006 mg/mL. The “Activity in adhesion bioassay (in words)” value in assay [1] was “especially active”. Also, the “H.I. Recovered Log10 (CFU/mL)” value in assay [2] (Trial 1, inoculum dose 53 CFU/pup, 1 mg/mL PI-3,4-PP) is 1.34 ± 0.58 Log10 (CFU/mL); in assay [2] (Trial 2, inoculum dose 630 CFU/pup, 1 mg/mL PI-3,4-PP), 2.54 ± 1.08 Log10 (CFU/mL). Further, the “Reduction in the number of bacteria recovered vs untreated group (HI+HBSS)” value in assay [2] (Trial 2, 1 mg/mL PI-3,4-PP, inoculum dose 630-720 CFU/pup) was 0.6 log. In addition, the “Mode of in vivo activity (in words)” value in assay [2] (neonatal rats, nasopharynx, ammonium salt) is “not bactericidal; also recorded: inhibits the attachment of nontypeable Haemophilus influenzae to nasopharyngeal cells of neonatal rats”.
Take “dipalmitoylphosphatidylinositol-3-phosphate ammonium salt [PI-3-P]”: the “% Inhibition of bacterial adhesion” value in assay [1] (setting [3]) is reported as 24%. Moreover, in assay [1], the “Activity in adhesion bioassay (in words)” value is “lower level of activity”.
